Data on one molecule can be found in patent publication US20250120890A1, “Oral Care Compositions Comprising Hops Beta Acids And Tin” (The Procter & Gamble Company, priority 2023, published 2025).

The data set is described as follows: Headspace measurement of DMDS and MeSH from dentifrice samples by SPME GC-SCD. It is filed as physicochemical. As to conditions: 0.100 wt % in stannous dentifrice, each pair of samples with/without. As for the experimental part: The oral care compositions of TABLE 2 were prepared by combining one or more humectants, water, sweetener(s), and metal salts, buffers, dyes, and/or stabilizing agents to create a liquid mixture. The liquid mixture was homogenized at 25° C. until homogeneous and completely dissolved. Next, sodium hydroxide (50% solution) was added to the liquid mixture, and the liquid mixture was homogenized at 25° C. until homogeneous and completely dissolved. A separate powder mixture was prepared by combining the abrasive silica, thickening silica, and opacifier, with any thickening agents, such as xanthan gum, Gantrez, and/or sodium carboxymethylcellulose. The powder mixture was then combined with the liquid mixture and homogenized completely. Next, the surfactant, such as sodium lauryl sulfate, flavor, optional Michael acceptor (“MA”), and optional hops extract were added to the mixture. The contents were homogenized at 25° C. until homogeneous, and entrained air was removed by vacuum. […]
Each salt described in Table 3 was weighed with a Mettler Toledo XSE 205 DualRange balance (Mettler Toledo USA, Columbus, OH, USA) and quantitatively transferred to a 600-mL beaker. […]

Regarding `C/C=C/C(=O)C1C(C)C=CCC1(C)C` (stereo not shown) [delta-damascone], the “Effect on headspace levels of MeSH and DMDS” value is “reduced the headspace levels of MeSH and DMDS substantially”.
